Values of other authors as cited in patent US20110223244A1, “ALCOHOL RESISTANT ENTERIC PHARMACEUTICAL COMPOSITIONS” (priority 2010, published 2011).
Structures can show the parent of a compound that is named as a salt.

Conditions: yields 1-(2-thienyl)carbinol, naphthol and substituted naphthols

CNCC[C@H](Oc1cccc2ccccc12)c1cccs1 [duloxetine HCl]
stability in aqueous HCl: rapidly undergoes solvolysis and rearrangement
